Holding throughout (assay): Cell activity of PI3K subtypes, AlphaLISA p-AKT (pS473)
What all share (assay type): cell-based
A general note: Bead proximity is the source of the signal in Alpha formats.

One assay deals with PI3Kγ(Raw264.7) (Mus musculus (Mouse), UniProt Q9JHG7). An excerpt: (§1) The following method was used to determine the degree of inhibition of the compounds of the present invention on activity of PI3Kα, PI3Kβ, PI3Kγ, and PI3Kδ kinase in different cells. The AlphaLISA SureFire Ultra p-AKT1/2/3 (pS473) kit (#ALSU-PAKT-B500) of PE company was used in the method. The above kit used AlphaLISA technology, using donor and acceptor beads to detect the interaction of biomolecules, to detect the content of p-AKT (pS473), reflecting the intensity of inhibition of the compounds on PI3Kα, PI3Kβ, PI3Kγ and PI3Kδ at the cell level. For detailed experimental operations, please refer to the kit instructions.
Sequence of PI3Kγ(Raw264.7) (Q9JHG7 whole entry): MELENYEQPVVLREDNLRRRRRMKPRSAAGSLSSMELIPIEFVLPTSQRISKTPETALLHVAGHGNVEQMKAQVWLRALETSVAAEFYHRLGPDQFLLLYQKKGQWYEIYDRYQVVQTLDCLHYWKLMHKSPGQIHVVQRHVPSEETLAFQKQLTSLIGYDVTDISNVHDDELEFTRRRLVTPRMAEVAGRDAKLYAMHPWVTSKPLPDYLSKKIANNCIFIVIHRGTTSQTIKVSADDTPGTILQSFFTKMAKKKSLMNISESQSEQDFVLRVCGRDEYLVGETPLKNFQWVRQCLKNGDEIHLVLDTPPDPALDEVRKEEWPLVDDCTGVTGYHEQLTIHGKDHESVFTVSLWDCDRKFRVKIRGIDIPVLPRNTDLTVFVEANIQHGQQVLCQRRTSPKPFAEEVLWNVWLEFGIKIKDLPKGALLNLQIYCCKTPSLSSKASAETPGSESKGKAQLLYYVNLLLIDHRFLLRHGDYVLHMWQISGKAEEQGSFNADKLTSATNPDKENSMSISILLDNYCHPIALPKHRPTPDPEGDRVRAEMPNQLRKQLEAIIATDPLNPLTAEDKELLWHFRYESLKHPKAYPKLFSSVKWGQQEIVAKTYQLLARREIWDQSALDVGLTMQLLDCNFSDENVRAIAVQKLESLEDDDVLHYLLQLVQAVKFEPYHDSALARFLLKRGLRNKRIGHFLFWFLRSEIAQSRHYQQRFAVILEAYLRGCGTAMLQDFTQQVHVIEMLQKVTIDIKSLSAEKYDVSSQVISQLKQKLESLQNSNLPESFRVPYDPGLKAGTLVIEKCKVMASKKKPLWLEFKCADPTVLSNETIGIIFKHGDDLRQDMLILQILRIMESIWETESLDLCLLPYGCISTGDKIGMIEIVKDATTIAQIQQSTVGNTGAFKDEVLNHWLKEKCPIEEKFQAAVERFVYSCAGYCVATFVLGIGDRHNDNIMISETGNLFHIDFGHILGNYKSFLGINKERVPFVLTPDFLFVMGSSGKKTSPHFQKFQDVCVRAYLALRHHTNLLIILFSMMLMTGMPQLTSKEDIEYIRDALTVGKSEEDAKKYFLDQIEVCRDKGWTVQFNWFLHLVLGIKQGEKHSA
Sequence of PI3Kγ(Raw264.7) (Q5SW28 whole entry partner): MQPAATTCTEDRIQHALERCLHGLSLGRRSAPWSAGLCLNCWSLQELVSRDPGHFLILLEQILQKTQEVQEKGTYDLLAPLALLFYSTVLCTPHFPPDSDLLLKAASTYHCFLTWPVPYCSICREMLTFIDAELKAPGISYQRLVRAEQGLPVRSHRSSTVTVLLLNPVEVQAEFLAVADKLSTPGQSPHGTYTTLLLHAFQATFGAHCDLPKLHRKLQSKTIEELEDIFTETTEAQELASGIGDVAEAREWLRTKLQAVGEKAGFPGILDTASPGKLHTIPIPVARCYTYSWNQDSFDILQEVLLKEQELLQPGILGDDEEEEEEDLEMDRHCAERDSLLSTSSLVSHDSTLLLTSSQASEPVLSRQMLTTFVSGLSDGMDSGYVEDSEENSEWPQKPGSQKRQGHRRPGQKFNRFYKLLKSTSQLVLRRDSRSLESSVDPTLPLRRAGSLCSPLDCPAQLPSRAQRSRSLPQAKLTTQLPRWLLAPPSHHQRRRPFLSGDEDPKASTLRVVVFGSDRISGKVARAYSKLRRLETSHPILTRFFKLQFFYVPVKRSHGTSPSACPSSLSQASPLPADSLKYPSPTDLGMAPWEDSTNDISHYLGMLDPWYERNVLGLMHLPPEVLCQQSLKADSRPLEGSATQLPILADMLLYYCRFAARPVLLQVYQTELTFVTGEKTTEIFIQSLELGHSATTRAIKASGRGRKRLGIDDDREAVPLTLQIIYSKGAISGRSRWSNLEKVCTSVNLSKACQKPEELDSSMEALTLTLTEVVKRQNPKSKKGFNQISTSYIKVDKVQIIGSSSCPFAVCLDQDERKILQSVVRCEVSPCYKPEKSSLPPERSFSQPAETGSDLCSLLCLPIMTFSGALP
(§2) The experimental procedure was briefly described as follows: the experiment was carried out in a 384-well plate using a Multidrop dispenser (Thermo, #836-4049), using different cells for different PI3K subtypes (PI3Kα: C2C12 cells (myoblasts); PI3Kβ: PC-3 cells (human prostate cancer cells); PI3Kγ: Raw264.7 cells (monocyte macrophages); PI3Kδ: Raji cells (lymphoma cells)). 6 μL of the corresponding cells were transferred to the wells of a 384-well plate. After centrifugation 500 RPM for 30 seconds, the plate was placed in a 37° C., 5% CO2 incubator for 2 hours. The test compound was first dissolved in DMSO to prepare a 10 mM stock solution, which was diluted 4-fold with DMSO. 30 nL was transferred by Echo (Labcyte, #550) to each well (final concentration is 10000 nM-0.2 nM), and incubated for 30 minutes. Then for C2C12 cells used for PI3Kα subtype, 2 uL IGF-1 (R&D, #291-G1-200, final concentration 1200 ng/mL) was added and incubated for 20 minutes. For PC-3 cells used for PI3Kβ subtype, 2 μL LPA (Sigma, #L7260, final concentration 15 ug/mL) was added and incubated for 20 minutes. For Raw264.7 cells used for PI3Kγ subtype, 2 uL C5a (Biotang, #RPR9899, final concentration 80 ng/mL) was added and incubated for 5 minutes. For Raji cells used for PI3Kδ subtype, 2 μL IgM (Jackson ImmunoResearch, #109-006-129, final concentration 3 ug/mL) was added and incubated for 10 minutes. After the incubation, AlphaLISA SureFire Ultra p-AKT1/2/3(pS473) kit was used to determine the AlphaLISA signal. The kit determination method was briefly described as follows: 20 μL Lysis Buffer was used to lyse the cells for 10 minutes. Then 5 uL acceptor mix and 5 uL donor mix were added to a 384-well plate. The plate was incubated with shaking at room temperature for 2 hours. Envision (PE, #2104) was used to read AlphaLISA signal. By comparing with the signal intensity ratio of the control group (0.5% DMSO), the percentage inhibition rate of the compound at each concentration was calculated. The GraphPad Prism 5 software was used to perform nonlinear regression analysis of the compound concentration logarithmic value vs. the inhibition rate to obtain the IC50 values of the compounds, shown in Table 3.

The next assay concerns the target PI3Kα(C2C12) (Mus musculus (Mouse), UniProt P42337). The following applies: C2C12 cells, IGF-1 stimulated.
Text: as §1, §2

Another assay deals with PI3Kδ(Raji) (Homo sapiens (Human), UniProt O00329). The conditions noted are these: Raji cells, IgM stimulated.
Sequence of PI3Kδ(Raji) (O00329 whole entry): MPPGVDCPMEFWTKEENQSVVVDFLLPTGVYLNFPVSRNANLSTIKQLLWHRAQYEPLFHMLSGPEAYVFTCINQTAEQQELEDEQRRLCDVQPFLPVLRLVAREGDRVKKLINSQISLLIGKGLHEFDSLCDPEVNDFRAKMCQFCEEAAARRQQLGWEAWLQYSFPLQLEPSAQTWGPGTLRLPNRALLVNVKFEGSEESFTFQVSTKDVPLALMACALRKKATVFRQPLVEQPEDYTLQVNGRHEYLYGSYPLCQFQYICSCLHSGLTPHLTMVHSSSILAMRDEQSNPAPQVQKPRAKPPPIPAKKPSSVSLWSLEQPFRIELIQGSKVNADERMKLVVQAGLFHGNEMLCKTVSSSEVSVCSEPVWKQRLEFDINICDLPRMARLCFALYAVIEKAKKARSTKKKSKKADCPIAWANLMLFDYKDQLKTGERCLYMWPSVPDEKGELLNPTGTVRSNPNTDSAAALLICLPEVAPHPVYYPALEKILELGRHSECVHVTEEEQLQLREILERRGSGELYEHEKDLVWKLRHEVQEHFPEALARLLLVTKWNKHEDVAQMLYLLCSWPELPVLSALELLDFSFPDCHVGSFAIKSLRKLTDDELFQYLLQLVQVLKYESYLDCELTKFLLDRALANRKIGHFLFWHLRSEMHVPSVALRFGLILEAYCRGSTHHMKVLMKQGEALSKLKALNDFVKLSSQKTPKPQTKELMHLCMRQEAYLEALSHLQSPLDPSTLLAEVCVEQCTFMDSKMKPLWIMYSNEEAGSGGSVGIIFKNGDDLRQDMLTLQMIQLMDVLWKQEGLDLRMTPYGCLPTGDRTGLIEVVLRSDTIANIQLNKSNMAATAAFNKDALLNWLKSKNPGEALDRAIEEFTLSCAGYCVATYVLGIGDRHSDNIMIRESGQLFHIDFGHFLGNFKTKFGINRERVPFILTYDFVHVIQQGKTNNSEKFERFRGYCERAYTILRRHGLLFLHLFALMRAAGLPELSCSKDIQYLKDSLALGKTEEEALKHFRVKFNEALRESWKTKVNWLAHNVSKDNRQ
Sequence of PI3Kδ(Raji) (P27986 whole entry partner): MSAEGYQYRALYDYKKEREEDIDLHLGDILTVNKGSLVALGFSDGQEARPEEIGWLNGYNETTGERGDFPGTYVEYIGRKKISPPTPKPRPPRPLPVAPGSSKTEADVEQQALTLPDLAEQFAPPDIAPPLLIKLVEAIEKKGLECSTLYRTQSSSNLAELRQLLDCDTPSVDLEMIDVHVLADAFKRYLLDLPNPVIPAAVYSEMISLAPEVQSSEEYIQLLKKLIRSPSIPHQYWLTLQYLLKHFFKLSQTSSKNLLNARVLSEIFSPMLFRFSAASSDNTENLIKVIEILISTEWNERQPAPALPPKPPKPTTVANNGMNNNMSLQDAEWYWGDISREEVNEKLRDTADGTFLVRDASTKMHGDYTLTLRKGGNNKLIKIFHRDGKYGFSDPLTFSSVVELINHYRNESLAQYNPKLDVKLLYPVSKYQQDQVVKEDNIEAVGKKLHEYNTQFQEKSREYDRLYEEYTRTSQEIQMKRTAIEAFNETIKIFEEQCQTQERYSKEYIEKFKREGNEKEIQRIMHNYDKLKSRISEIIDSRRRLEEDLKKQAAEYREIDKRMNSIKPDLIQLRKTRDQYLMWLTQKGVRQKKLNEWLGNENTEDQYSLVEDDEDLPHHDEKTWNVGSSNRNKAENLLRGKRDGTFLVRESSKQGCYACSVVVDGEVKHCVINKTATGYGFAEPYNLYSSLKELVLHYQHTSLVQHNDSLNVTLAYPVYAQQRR
Text: as §1, §2

The target in another assay is PI3Kβ(PC-3) (Homo sapiens (Human), UniProt P42338). The following applies: PC-3 cells, LPA stimulated.
Sequence of PI3Kβ(PC-3) (P42338 whole entry): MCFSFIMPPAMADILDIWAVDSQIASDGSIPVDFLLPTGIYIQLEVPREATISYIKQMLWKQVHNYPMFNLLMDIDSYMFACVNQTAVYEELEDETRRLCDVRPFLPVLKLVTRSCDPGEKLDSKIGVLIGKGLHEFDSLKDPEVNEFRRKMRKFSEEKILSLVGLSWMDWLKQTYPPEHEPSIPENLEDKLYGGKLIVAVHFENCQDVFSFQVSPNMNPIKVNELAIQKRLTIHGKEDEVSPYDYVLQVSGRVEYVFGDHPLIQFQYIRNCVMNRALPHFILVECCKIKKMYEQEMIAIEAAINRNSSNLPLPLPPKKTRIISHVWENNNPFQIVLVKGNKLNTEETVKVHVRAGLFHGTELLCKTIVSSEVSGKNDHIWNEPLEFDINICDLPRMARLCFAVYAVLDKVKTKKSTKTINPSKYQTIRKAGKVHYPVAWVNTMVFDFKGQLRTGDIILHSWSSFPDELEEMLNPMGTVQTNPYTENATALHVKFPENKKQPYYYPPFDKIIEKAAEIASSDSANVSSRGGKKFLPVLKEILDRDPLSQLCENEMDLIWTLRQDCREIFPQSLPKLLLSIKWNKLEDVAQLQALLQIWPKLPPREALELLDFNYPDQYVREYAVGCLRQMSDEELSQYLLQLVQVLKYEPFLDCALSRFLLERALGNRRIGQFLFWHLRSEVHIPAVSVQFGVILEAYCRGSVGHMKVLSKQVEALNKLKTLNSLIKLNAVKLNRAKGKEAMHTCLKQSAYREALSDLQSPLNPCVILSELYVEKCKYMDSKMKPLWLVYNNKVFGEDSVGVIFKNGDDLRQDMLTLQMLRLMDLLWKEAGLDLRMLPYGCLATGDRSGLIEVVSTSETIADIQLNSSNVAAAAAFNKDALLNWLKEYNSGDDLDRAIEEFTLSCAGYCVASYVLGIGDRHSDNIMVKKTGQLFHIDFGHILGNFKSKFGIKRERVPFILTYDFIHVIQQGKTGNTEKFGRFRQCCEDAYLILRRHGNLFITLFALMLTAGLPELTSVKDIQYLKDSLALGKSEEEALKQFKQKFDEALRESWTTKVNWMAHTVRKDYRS
Sequence of PI3Kβ(PC-3) (P27986 whole entry partner): as the sequence (P27986 whole entry partner) above
Text: as §1, §2

On to `C[C@H](NC(=O)c1c(N)nn2cccnc12)c1nc2cccc(C#Cc3cnn(C4CC4)c3)c2c(=O)n1-c1ccccc1` [Example 2, (S)-2-amino-N-(1-(5-((1-cyclopropyl-1H-pyrazol-4-yl)ethynyl)-4-oxo-3-phenyl-3,4-dihydroquinazolin-2-yl)ethyl)pyrazolo[1,5-a]pyrimidine-3-carboxamide], for which the IC50 on PI3Kγ(Raw264.7) (Raw264.7 cells, C5a stimulated, p-AKT (pS473)) is 3.42 nM; on PI3Kα(C2C12), 4770 nM; against PI3Kδ(Raji), 355 nM; on PI3Kβ(PC-3), 878 nM. Besides, the “IC50 (PI3Kα)/IC50(PI3Kγ)” value at PI3Kγ(Raw264.7) (cell selectivity, C2C12 vs Raw264.7) is 1394. In addition, at PI3Kγ(Raw264.7) (cell selectivity, PC-3 vs Raw264.7), the “IC50 (PI3Kβ)/IC50(PI3Kγ)” value stood at 257. For the same compound, on PI3Kγ(Raw264.7) (cell selectivity, Raji vs Raw264.7), the “IC50 (PI3Kδ)/IC50(PI3Kγ)” value came out at 104.

In general, IC50 refers to the concentration that inhibits the measured activity by half. A high value points to weaker potency in that assay.

The values above are taken from patent US12447151B2, “Alkyne derivative, preparation method for same, and uses thereof” (ZHEJIANG HISUN PHARMACEUTICAL CO., LTD., priority 2019, dated 2025).
